The values below come from patent US8921546B2, “Imidazolothiazole compounds for the treatment of disease” (Ambit Biosciences Corporation, priority 2006, dated 2014).

Counter-ions that a name gives are not always drawn. Like-named read-outs stand apart in the source and are kept apart here.

One assay deals with T1, FLT3 (Homo sapiens, UniProt P36888).
T1 construct: made in house
T1 sequence (P36888 27-993): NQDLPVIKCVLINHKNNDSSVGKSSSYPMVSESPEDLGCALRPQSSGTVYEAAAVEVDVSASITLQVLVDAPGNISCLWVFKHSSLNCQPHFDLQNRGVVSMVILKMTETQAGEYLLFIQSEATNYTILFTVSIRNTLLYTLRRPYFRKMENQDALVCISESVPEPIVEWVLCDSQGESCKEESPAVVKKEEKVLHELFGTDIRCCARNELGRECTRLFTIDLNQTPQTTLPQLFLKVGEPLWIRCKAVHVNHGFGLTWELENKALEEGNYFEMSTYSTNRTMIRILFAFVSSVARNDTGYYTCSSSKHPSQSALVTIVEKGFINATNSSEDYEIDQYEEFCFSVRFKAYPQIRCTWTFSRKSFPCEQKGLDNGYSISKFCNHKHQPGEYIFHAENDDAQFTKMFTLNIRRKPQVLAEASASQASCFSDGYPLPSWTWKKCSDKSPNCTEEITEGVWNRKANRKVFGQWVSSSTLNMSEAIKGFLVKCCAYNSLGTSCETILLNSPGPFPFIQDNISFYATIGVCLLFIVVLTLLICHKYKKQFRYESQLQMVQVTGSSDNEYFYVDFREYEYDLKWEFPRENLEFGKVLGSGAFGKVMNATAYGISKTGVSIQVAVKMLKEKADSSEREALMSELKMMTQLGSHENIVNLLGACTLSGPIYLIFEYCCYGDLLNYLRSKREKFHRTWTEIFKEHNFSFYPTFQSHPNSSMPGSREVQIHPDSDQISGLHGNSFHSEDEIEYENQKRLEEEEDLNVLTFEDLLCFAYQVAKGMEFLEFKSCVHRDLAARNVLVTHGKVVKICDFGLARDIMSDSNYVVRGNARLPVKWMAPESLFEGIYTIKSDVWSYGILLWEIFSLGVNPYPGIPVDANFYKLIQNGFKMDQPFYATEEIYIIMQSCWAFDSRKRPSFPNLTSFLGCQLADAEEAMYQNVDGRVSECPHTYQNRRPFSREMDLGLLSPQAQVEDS
Description: Binding constant (Kd) measurement, phage-displayed kinase competition binding assay, FLT3. The method, then:
(§1) Binding Constant (Kd) Measurements for Small-Molecule-Kinase Interactions
(§2) By testing across a large class of protein kinases, specificity of the kinase inhibitors provided herein is also determined. The components of the assays include various human kinases expressed as fusions to T7 bacteriophage particles and immobilized ligands that bind to the ATP site of the kinases. […] If the test compound binds the kinase, it competes with the immobilized ligand and prevents binding to the solid support. […] The results are read out by quantitating the amount of fusion protein bound to the solid support, which is accomplished by either traditional phage plaque assays or by quantitative PCR (qPCR) using the phage genome as a template.

The subject of another assay is MV4-11 cells. In words: Cellular proliferation assay (MTS), MV4-11. It is filed as cell-based. Particulars: Homo sapiens. The source says:
Cellular Proliferation Assay
Cancer cell viability and proliferation can be evaluated using a tetrazolium salt reduction cell-based assay. In viable cells, this colorimetric assay can measure mitochondrial reduction of a tetrazolium component (MTS) into an […] formazan product.
This cell line was used to determine the ability of the compounds provided herein to inhibit Flt3 in intact cells. The RS4-11 cell line, which expresses the wild-type (WT) receptor, is also used as a control to verify the test compound's ability to inhibit the FLT3 receptor containing the ITD mutation.
MV4-11 cells were plated at 10,000 cells per well in DMEM medium with 0.5% serum. RS4-11 cells were plated at 20,000 cells per well in RPMI with 0.5% serum. […] An aliquot from each well of the compound plate was transferred to the plated cells and then incubated @ 37° C. in 5% CO2 (for 3 days for the MV4-11 cells, 2 days for the RS4-11 cells).
MTS tetrazolium compound (Owen's reagent) was thawed in a H2O bath. 20 μl of MTS tetrazolium was added to each well of optical plate and the cells were incubated @ 37° C. in 5% CO2 for 2 hours.

The target in another assay is T2, KIT (Homo sapiens, UniProt P10721).
T2 construct: made in house
T2 sequence (P10721 26-976): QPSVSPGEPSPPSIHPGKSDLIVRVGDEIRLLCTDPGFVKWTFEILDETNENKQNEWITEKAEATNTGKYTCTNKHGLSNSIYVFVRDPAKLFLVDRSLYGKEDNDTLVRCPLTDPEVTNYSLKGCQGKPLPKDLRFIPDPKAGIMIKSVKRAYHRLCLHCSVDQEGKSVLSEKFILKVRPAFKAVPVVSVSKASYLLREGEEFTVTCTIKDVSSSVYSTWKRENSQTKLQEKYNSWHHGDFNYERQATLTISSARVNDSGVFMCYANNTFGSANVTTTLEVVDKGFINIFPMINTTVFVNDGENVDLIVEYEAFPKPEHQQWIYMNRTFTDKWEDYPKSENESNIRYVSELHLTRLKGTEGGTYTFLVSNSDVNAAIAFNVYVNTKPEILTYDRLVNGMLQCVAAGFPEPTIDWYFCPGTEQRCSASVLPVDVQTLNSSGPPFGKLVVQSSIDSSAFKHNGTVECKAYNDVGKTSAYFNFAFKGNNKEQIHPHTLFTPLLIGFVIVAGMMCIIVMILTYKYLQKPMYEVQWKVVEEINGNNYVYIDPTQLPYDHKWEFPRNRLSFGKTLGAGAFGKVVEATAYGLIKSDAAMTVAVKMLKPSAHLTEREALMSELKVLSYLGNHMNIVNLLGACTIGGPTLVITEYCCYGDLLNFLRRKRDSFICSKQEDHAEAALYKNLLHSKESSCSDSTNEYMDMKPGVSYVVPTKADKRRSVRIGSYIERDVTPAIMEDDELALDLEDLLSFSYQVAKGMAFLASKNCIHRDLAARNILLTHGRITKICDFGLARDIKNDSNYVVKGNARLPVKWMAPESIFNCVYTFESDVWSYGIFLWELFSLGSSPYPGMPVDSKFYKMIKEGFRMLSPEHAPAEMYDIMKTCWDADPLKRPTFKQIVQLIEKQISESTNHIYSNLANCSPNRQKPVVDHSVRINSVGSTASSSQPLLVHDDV
In words: Binding constant (Kd) measurement, phage-displayed kinase competition binding assay, KIT. The procedure: as §1, §2

The next assay deals with T3, CSF1R (Homo sapiens, UniProt P07333).
T3 construct: made in house
T3 sequence (P07333 20-972): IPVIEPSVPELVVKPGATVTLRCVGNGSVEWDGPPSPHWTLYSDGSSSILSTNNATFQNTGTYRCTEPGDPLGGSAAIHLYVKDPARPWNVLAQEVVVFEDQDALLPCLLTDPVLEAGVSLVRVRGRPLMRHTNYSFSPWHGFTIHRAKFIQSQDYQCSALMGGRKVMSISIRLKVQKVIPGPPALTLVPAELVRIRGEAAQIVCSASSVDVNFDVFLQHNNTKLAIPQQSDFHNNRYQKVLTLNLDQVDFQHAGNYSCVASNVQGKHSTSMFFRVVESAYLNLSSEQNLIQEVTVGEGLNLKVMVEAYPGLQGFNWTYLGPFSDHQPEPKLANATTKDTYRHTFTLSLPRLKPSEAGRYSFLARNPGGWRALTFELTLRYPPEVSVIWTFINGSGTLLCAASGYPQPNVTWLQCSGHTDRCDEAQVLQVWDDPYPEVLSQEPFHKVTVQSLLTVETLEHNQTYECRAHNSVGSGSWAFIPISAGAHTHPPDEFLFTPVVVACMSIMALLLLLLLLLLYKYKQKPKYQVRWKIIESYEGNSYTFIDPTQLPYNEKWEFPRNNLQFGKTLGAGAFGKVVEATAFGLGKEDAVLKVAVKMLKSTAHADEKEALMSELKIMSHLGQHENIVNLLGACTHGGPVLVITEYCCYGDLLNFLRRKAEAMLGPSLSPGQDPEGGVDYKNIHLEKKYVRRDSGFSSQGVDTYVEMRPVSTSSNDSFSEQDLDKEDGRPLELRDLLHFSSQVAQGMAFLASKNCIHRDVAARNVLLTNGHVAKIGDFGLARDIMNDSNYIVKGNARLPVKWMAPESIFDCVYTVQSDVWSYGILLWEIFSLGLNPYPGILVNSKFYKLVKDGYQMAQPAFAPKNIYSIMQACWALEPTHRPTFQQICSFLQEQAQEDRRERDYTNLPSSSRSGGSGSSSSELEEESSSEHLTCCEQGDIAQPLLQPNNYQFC
In words: Binding constant (Kd) measurement, phage-displayed kinase competition binding assay, CSF1R. The procedure:
as §1, §2

The mark [1] stands for this setting: read-out: Binding Assay FLT3 Kd.
[2] abbreviates: MV4-11 cells, 72 hour incubation, MTS, read-out: Cellular Assay MV-proliferation IC50.

One may read the Kd as the constant that tells how readily two partners part at equilibrium. Turning to `CC(C)(C)c1cc(NC(=O)Nc2ccc(-c3cn4c(n3)sc3cc(CCC(=O)NCCN5CCOCC5)ccc34)cc2)no1` [Compound C9, 3-(2-{4-[3-(5-tert-butyl-isoxazol-3-yl)-ureido]-phenyl}-benzo[d]imidazo[2,1-b]thiazol-7-yl)-N-(2-morpholin-4-yl-ethyl)-propionamide hydrochloride], the Kd on FLT3 (setting [1]), at KIT and at CSF1R was under 0.01 µM in each case. In the assay with MV4-11 cells (setting [2]), the IC50 is under 10 nM.
For the compound `CC(C)(C)c1cc(NC(=O)Nc2ccc(-c3cn4c(n3)sc3cc(CCC(=O)NCCN5CCCCC5)ccc34)cc2)no1` [Compound C10, 3-(2-{4-[3-(5-tert-butyl-isoxazol-3-yl)-ureido]-phenyl}-benzo[d]imidazo[2,1-b]thiazol-7-yl)-N-(2-piperidin-1-yl-ethyl)-propionamide hydrochloride], the Kd on FLT3 (setting [1]) was under 0.01 µM; on KIT, under 0.01 µM; at CSF1R, 0.01 to 0.1 µM. For the same compound, the IC50 in the assay with MV4-11 cells (setting [2]) is under 10 nM.
Consider `CC(C)(C)c1cc(NC(=O)Nc2ccc(-c3cn4c(n3)sc3cc(CCC(=O)NCCN5CCCC5)ccc34)cc2)no1` [Compound C11, 3-(2-{4-[3-(5-tert-butyl-isoxazol-3-yl)-ureido]-phenyl}-benzo[d]imidazo[2,1-b]thiazol-7-yl)-N-(2-pyrrolidin-1-yl-ethyl)-propionamide hydrochloride], for which the Kd at FLT3, at KIT and at CSF1R was under 0.01 µM in each case. The IC50 in the assay with MV4-11 cells (setting [2]) was under 10 nM.
As to `CCN(CC)CCNC(=O)CCc1ccc2c(c1)sc1nc(-c3ccc(NC(=O)Nc4cc(C(C)(C)C)on4)cc3)cn12` [Compound C12, 3-(2-{4-[3-(5-tert-butyl-isoxazol-3-yl)-ureido]-phenyl}-benzo[d]imidazo[2,1-b]thiazol-7-yl)-N-(2-diethylamino-ethyl)-propionamide hydrochloride], the Kd at FLT3 was under 0.01 µM; at KIT, under 0.01 µM; at CSF1R, 0.01 to 0.1 µM. The IC50 in the assay on MV4-11 cells (setting [2]) is under 10 nM.
Take `CC(C)(C)c1cc(NC(=O)Nc2ccc(-c3cn4c(n3)sc3cc(CC(=O)NCCN5CCOCC5)ccc34)cc2)no1` [Compound C13, 2-(2-{4-[3-(5-tert-butyl-isoxazol-3-yl)-ureido]-phenyl}-benzo[d]imidazo[2,1-b]thiazol-7-yl)-N-(2-morpholin-4-yl-ethyl)-acetamide hydrochloride]: the Kd at FLT3 was under 0.01 µM; on KIT, under 0.01 µM; at CSF1R it was 0.01 to 0.1 µM. For the same compound, the IC50 in the assay with MV4-11 cells (setting [2]) is under 10 nM.
For the compound `CC(C)(C)c1cc(NC(=O)Nc2ccc(-c3cn4c(n3)sc3cc(CC(=O)NCCN5CCCCC5)ccc34)cc2)no1` [Compound C14, 2-(2-{4-[3-(5-tert-butyl-isoxazol-3-yl)-ureido]-phenyl}-benzo[d]imidazo[2,1-b]thiazol-7-yl)-N-(2-piperidin-1-yl-ethyl)-acetamide hydrochloride], the values for the Kd at FLT3, on KIT and at CSF1R were under 0.01 µM, under 0.01 µM and 0.01 to 0.1 µM, respectively. Further, the IC50 in the assay with MV4-11 cells (setting [2]) is under 10 nM.
Consider `CC(C)(C)c1cc(NC(=O)Nc2ccc(-c3cn4c(n3)sc3cc(CC(=O)N5CCOCC5)ccc34)cc2)no1` [Compound C18, 1-(5-tert-butyl-isoxazol-3-yl)-3-{4-[7-(2-morpholin-4-yl-2-oxo-ethyl)-imidazo[2,1-b][1,3]benzothiazol-2yl]-phenyl}-urea], for which the Kd on FLT3 is under 0.01 µM; on KIT, under 0.01 µM; on CSF1R, 0.01 to 0.1 µM. The IC50 in the assay with MV4-11 cells (setting [2]) is under 10 nM.
As to `CC(C)(C)c1cc(NC(=O)Nc2ccc(-c3cn4c(n3)sc3cc(C(=O)NCCN5CCCC5)ccc34)cc2)no1` [Compound C21, 2-{4-[3-(5-tert-butyl-isoxazol-3-yl)-ureido]-phenyl}-imidazo[2,1-b][1,3]benzothiazole-7-carboxylic Acid (2-Pyrrolidin-1-yl-ethyl)-amide hydrochloride], the dissociation constant Kd on FLT3 was under 0.01 µM; at KIT, under 0.01 µM; on CSF1R, 0.01 to 0.1 µM. Besides, the IC50 in the assay with MV4-11 cells (setting [2]) was under 10 nM.
On to `CCN(CC)CCNC(=O)c1ccc2c(c1)sc1nc(-c3ccc(NC(=O)Nc4cc(C(C)(C)C)on4)cc3)cn12` [Compound C22, 2-{4-[3-(5-tert-butyl-isoxazol-3-yl)-ureido]-phenyl}-imidazo[2,1-b][1,3]benzothiazole-7-carboxylic acid (2-diethylamino-ethyl)-amide hydrochloride], for which the values for the Kd at FLT3, on KIT and at CSF1R were under 0.01 µM, under 0.01 µM and 0.01 to 0.1 µM, respectively. The IC50 in the assay on MV4-11 cells (setting [2]) was under 10 nM.
For the compound `CCN1CCN(C(=O)c2ccc3c(c2)sc2nc(-c4ccc(NC(=O)Nc5cc(C(C)(C)C)on5)cc4)cn23)CC1` [Compound C23, 1-(5-tert-butyl-isoxazol-3-yl)-3-{4-[7-(4-ethyl-piperazine-1-carbonyl)-imidazo[2,1-b][1,3]benzothiazol-2-yl]-phenyl}-urea hydrochloride], the Kd was under 0.01 µM at FLT3 (setting [1]), under 0.01 µM on KIT and 0.01 to 0.1 µM on CSF1R. Moreover, the IC50 in the assay on MV4-11 cells (MV4-11, 72 h, read-out: Cellular Assay MV-proliferation IC50 (nM)) is under 10 nM.
Consider `CC(C)(C)c1cc(NC(=O)Nc2ccc(-c3cn4c(n3)sc3cc(C(=O)N5CCNCC5)ccc34)cc2)no1` [Compound C24, 1-(5-tert-butyl-isoxazol-3-yl)-3-{4-[7-(piperazine-1-carbonyl)-imidazo[2,1-b][1,3]benzothiazol-2-yl]-phenyl}-urea hydrochloride], for which the Kd at FLT3 is under 0.01 µM; on KIT, under 0.01 µM; on CSF1R it was 0.01 to 0.1 µM. In addition, the IC50 in the assay with MV4-11 cells (setting [2]) is under 10 nM.
As for `CN1CCN(C(=O)c2ccc3c(c2)sc2nc(-c4ccc(NC(=O)Nc5cc(C(C)(C)C)on5)cc4)cn23)CC1` [Compound C25, 1-(5-tert-butyl-isoxazol-3-yl)-3-{4-[7-(4-methyl-piperazine-1-carbonyl)-imidazo[2,1-b][1,3]benzothiazol-2-yl]-phenyl}-urea hydrochloride], the Kd was under 0.01 µM at FLT3, under 0.01 µM on KIT and 0.01 to 0.1 µM on CSF1R. The IC50 in the assay on MV4-11 cells (setting [2]) was under 10 nM.
As to `CCOC(=O)c1ccc2c(c1)sc1nc(-c3ccc(NC(=O)Nc4cc(C(C)(C)C)on4)cc3)cn12` [Compound C26, 2-{4-[3-(5-tert-Butyl-isoxazol-3-yl)-ureido]-phenyl}-imidazo[2,1-b][1,3]benzothiazole-7-carboxylic acid ethyl ester], the Kd on FLT3 was under 0.01 µM; on KIT, 0.01 to 0.1 µM; on CSF1R, 0.1 to 1 µM. The IC50 with MV4-11 cells (setting [2]) is under 10 nM.
With `CC(C)(C)c1cc(NC(=O)Nc2ccc(-c3cn4c(n3)sc3cc(C(=O)O)ccc34)cc2)no1` [Compound C27, Sodium 2-{4-[3-(5-tert-butyl-isoxazol-3-yl)-ureido]-phenyl}-benzo[d]imidazo[2,1-b]thiazole-7-carboxylate], the figures for the Kd on FLT3 (setting [1]), on KIT and at CSF1R were under 0.01 µM, under 0.01 µM and 0.01 to 0.1 µM, respectively. For the same compound, the IC50 in the assay with MV4-11 cells (setting [2]) is under 10 nM.
In the case of `CN(C(=O)Nc1cc(C(C)(C)C)on1)c1ccc(-c2cn3c(n2)sc2cc(CCCN4CCOCC4)ccc23)cc1` [Compound D2, 3-(5-tert-Butyl-isoxazol-3-yl)-1-methyl-1 {4-[7-(3-morpholin-4-yl-propyl)-benzo[d]imidazo[2,1-b]thiazol-2-yl]-phenyl}-urea], the Kd is 0.01 to 0.1 µM at FLT3 (setting [1]), under 0.01 µM on KIT and 0.01 to 0.1 µM on CSF1R. The IC50 in the assay with MV4-11 cells (setting [2]) was in the range of 10 to 100 nM.
